{
  "source": "patent US6706663B2",
  "about": "“Herbicidal 3-heterocyclic substituted benzisothiazole and benzisoxazole compounds” (Wyeth, priority 2000, dated 2004)",
  "key": {"[1]": {"test_system": "SAGPY (Sagittaria pygmaea)", "assay": "Flooded paddy, preemergence weed control", "type": "in vivo, L.", "conditions": "rated 3-4 weeks after treatment, 0-9 rating scale", "summary_of_the_method": "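Scoring used a 0-9 visual scale relative to control. Before that, seeds or propagules were planted shallowly in silt loam and flooded to 1.5–3 cm, a depth maintained throughout, with greenhouse care during the test.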"}, "[2]": {"test_system": "CYPSE (Cyperus serotinus)", "assay": "Flooded paddy, preemergence weed control", "type": "in vivo, Rottb.", "conditions": "rated 3-4 weeks after treatment, 0-9 rating scale", "summary_of_the_method": "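Herbicidal effect was scored visually on a 0–9 scale against an untreated control 3–4 weeks after treatment. Compounds were applied preemergence as 50/50 v/v aqueous/acetone mixtures into flood water (1.5–3 cm deep over silt loam), at roughly 0.0080 to 0.1250 kg/ha active ingredient.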"}, "ORYSAT (Rice, Tebonnet) [3]": {"test_system": "ORYSAT (Rice, Tebonnet)", "assay": "Flooded paddy, post-transplant rice tolerance", "type": "in vivo, Oryza sativa, (L.) Tebonnet", "conditions": "flooded paddy, post-transplant rice, rated 3-4 weeks after treatment, 0-9 rating scale", "summary_of_the_method": "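Seedlings aged ten days are transplanted in pairs into undrained pots of silt loam, which are then flooded to a depth of 1.5 to 3 cm. After herbicide application the pots are kept in a greenhouse with the flood maintained. Plants are rated 0-9 by visual comparison with controls.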"}, "ORYSAT (Rice, Tebonnet) [4]": {"test_system": "ORYSAT (Rice, Tebonnet)", "assay": "Preemergence herbicidal evaluation", "type": "in vivo, Oryza sativa, (L.) Tebonnet", "conditions": "preemergence, rated 4-5 weeks after treatment"}, "GALAP (Galium aparine) [5]": {"test_system": "GALAP (Galium aparine)", "assay": "Postemergence herbicidal evaluation", "type": "in vivo", "summary_of_the_method": "(§1)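 Seedlings grown for about two weeks were sprayed postemergence and then kept under standard greenhouse care. Injury was rated visually 4–5 weeks after treatment on a 0–9 scale against untreated controls, and ratings from repeat tests were averaged.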"}, "ORYSAT (Rice, Tebonnet) [6]": {"test_system": "ORYSAT (Rice, Tebonnet)", "assay": "Postemergence herbicidal evaluation", "type": "in vivo, Oryza sativa, (L.) Tebonnet", "summary_of_the_method": "as §1"}, "[7]": {"test_system": "AMBEL (Ambrosia artemisifolia)", "assay": "Preemergence herbicidal evaluation", "type": "in vivo, L.", "conditions": "preemergence, rated 4-5 weeks after treatment", "summary_of_the_method": "(§2)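 Test compound is applied in aqueous acetone to cups just after seeding. Cups are watered and maintained on greenhouse benches. Each cup is scored 0–9 by eye relative to a control after four to five weeks.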"}, "[8]": {"test_system": "CASOB (Cassia obtusifolia)", "assay": "Preemergence herbicidal evaluation", "type": "in vivo, L.", "conditions": "preemergence, rated 4-5 weeks after treatment", "summary_of_the_method": "as §2"}, "[9]": {"test_system": "CHEAL (Chenopodium album)", "assay": "Preemergence herbicidal evaluation", "type": "in vivo, L.", "conditions": "preemergence, rated 4-5 weeks after treatment", "summary_of_the_method": "as §2"}, "[10]": {"test_system": "ECHCG (Echinochloa crus-galli)", "assay": "Postemergence herbicidal evaluation", "type": "in vivo, (L.) Beau", "summary_of_the_method": "as §1"}, "[11]": {"test_system": "GLXMAW (Soybean, Williams)", "assay": "Postemergence herbicidal evaluation", "type": "in vivo, Glycine max, (L.) Merr. cv Williams", "summary_of_the_method": "as §1"}, "GALAP (Galium aparine) [12]": {"test_system": "GALAP (Galium aparine)", "assay": "Preemergence herbicidal evaluation", "type": "in vivo", "conditions": "preemergence, rated 4-5 weeks after treatment", "summary_of_the_method": "as §2"}, "[13]": {"test_system": "TRZAWR (Wheat, Winter, cv Riband)", "assay": "Preemergence herbicidal evaluation", "type": "in vivo, Triticum aestivum", "conditions": "preemergence, rated 4-5 weeks after treatment", "summary_of_the_method": "as §2"}, "[14]": {"test_system": "ABUTH (Abutilon theophrasti)", "assay": "Postemergence herbicidal evaluation", "type": "in vivo, Medic.", "summary_of_the_method": "as §1"}, "ZEAMX (Corn, Field)": {"test_system": "ZEAMX (Corn, Field)", "assay": "Postemergence herbicidal evaluation", "type": "in vivo, Zea mays, L.", "summary_of_the_method": "as §1"}, "[15]": {"test_system": "AMBEL (Ambrosia artemisifolia)", "assay": "Postemergence herbicidal evaluation", "type": "in vivo, L.", "summary_of_the_method": "as §1"}, "[16]": {"test_system": "CASOB (Cassia obtusifolia)", "assay": "Postemergence herbicidal evaluation", "type": "in vivo, L.", "summary_of_the_method": "as §1"}, "[17]": {"test_system": "CHEAL (Chenopodium album)", "assay": "Postemergence herbicidal evaluation", "type": "in vivo, L.", "summary_of_the_method": "as §1"}, "[18]": {"test_system": "ABUTH (Abutilon theophrasti)", "assay": "Preemergence herbicidal evaluation", "type": "in vivo, Medic.", "conditions": "preemergence, rated 4-5 weeks after treatment"}, "[19]": {"test_system": "IPOHE (Ipomoea hederacea)", "assay": "Preemergence herbicidal evaluation", "type": "in vivo, (L.) Jacq.", "conditions": "preemergence, rated 4-5 weeks after treatment"}},
  "data": [
    {"smiles": "Cn1c(C(F)(F)F)cc(=O)n(-c2ccc3snc(C4OCCCO4)c3c2)c1=O", "note": "[Compound 28, 3-(3-m-dioxan-2-yl-1,2-benzisothiazol-5-yl)-1-methyl-6-(trifluoromethyl)uracil]", "values": [
      {"measurement": "herbicidal rating, SAGPY", "setting": "[1]; rate 0.0080 kg/ha", "result": 0.0},
      {"measurement": "herbicidal rating, SAGPY", "setting": "[1]; rate 0.0320 kg/ha", "result": 8.0},
      {"measurement": "herbicidal rating, SAGPY", "setting": "[1]; rate 0.1250 kg/ha", "result": 9.0},
      {"measurement": "herbicidal rating, CYPSE", "setting": "[2]; rate 0.0320 kg/ha", "result": 9.0},
      {"measurement": "herbicidal rating, CYPSE", "setting": "[2]; rate 0.1250 kg/ha", "result": 9.0},
      {"measurement": "herbicidal rating, ORYSAT (rice tolerance)", "setting": "ORYSAT (Rice, Tebonnet) [3]; rate 0.0080 kg/ha", "result": 7.0},
      {"measurement": "herbicidal rating, ORYSAT (rice tolerance)", "setting": "ORYSAT (Rice, Tebonnet) [3]; rate 0.0320 kg/ha", "result": 9.0},
      {"measurement": "herbicidal rating, ORYSAT (rice tolerance)", "setting": "ORYSAT (Rice, Tebonnet) [3]; rate 0.1250 kg/ha", "result": 9.0},
      {"measurement": "ORYSAT preemergence herbicidal rating", "setting": "ORYSAT (Rice, Tebonnet) [4]; Rate 0.0620 kg/ha", "result": 9.0},
      {"measurement": "ORYSAT preemergence herbicidal rating", "setting": "ORYSAT (Rice, Tebonnet) [4]; Rate 0.1250 kg/ha", "result": 9.0},
      {"measurement": "ORYSAT preemergence herbicidal rating", "setting": "ORYSAT (Rice, Tebonnet) [4]; Rate 0.2500 kg/ha", "result": 9.0},
      {"measurement": "Postemergence herbicidal rating, GALAP", "setting": "GALAP (Galium aparine) [5]; rate 0.0320 kg/ha", "result": 8.3},
      {"measurement": "Postemergence herbicidal rating, GALAP", "setting": "GALAP (Galium aparine) [5]; rate 0.0620 kg/ha", "result": 9.0},
      {"measurement": "Postemergence herbicidal rating, ORYSAT", "setting": "ORYSAT (Rice, Tebonnet) [6]; rate 0.0320 kg/ha", "result": 5.3},
      {"measurement": "Postemergence herbicidal rating, ORYSAT", "setting": "ORYSAT (Rice, Tebonnet) [6]; rate 0.0620 kg/ha", "result": 6.5},
      {"measurement": "AMBEL preemergence herbicidal rating", "setting": "[7]; Rate 0.0620 kg/ha", "result": 9.0},
      {"measurement": "AMBEL preemergence herbicidal rating", "setting": "[7]; Rate 0.1250 kg/ha", "result": 9.0},
      {"measurement": "AMBEL preemergence herbicidal rating", "setting": "[7]; Rate 0.2500 kg/ha", "result": 9.0},
      {"measurement": "CASOB preemergence herbicidal rating", "setting": "[8]; Rate 0.0620 kg/ha", "result": 9.0},
      {"measurement": "CASOB preemergence herbicidal rating", "setting": "[8]; Rate 0.1250 kg/ha", "result": 9.0},
      {"measurement": "CASOB preemergence herbicidal rating", "setting": "[8]; Rate 0.2500 kg/ha", "result": 9.0},
      {"measurement": "CHEAL preemergence herbicidal rating", "setting": "[9]; Rate 0.0620 kg/ha", "result": 9.0},
      {"measurement": "CHEAL preemergence herbicidal rating", "setting": "[9]; Rate 0.1250 kg/ha", "result": 9.0},
      {"measurement": "CHEAL preemergence herbicidal rating", "setting": "[9]; Rate 0.2500 kg/ha", "result": 9.0},
      {"measurement": "Postemergence herbicidal rating, ECHCG", "setting": "[10]; rate 0.0320 kg/ha", "result": 4.3},
      {"measurement": "Postemergence herbicidal rating, ECHCG", "setting": "[10]; rate 0.0620 kg/ha", "result": 8.5},
      {"measurement": "Postemergence herbicidal rating, GLXMAW", "setting": "[11]; rate 0.0320 kg/ha", "result": 9.0},
      {"measurement": "Postemergence herbicidal rating, GLXMAW", "setting": "[11]; rate 0.0620 kg/ha", "result": 9.0},
      {"measurement": "GALAP preemergence herbicidal rating", "setting": "GALAP (Galium aparine) [12]; Rate 0.0620 kg/ha", "result": 9.0},
      {"measurement": "GALAP preemergence herbicidal rating", "setting": "GALAP (Galium aparine) [12]; Rate 0.1250 kg/ha", "result": 9.0},
      {"measurement": "GALAP preemergence herbicidal rating", "setting": "GALAP (Galium aparine) [12]; Rate 0.2500 kg/ha", "result": 9.0},
      {"measurement": "TRZAWR preemergence herbicidal rating", "setting": "[13]; Rate 0.0620 kg/ha", "result": 9.0},
      {"measurement": "TRZAWR preemergence herbicidal rating", "setting": "[13]; Rate 0.1250 kg/ha", "result": 9.0},
      {"measurement": "TRZAWR preemergence herbicidal rating", "setting": "[13]; Rate 0.2500 kg/ha", "result": 9.0},
      {"measurement": "Postemergence herbicidal rating, ABUTH", "setting": "[14]; rate 0.0320 kg/ha", "result": 9.0},
      {"measurement": "Postemergence herbicidal rating, ABUTH", "setting": "[14]; rate 0.0620 kg/ha", "result": 9.0},
      {"measurement": "Postemergence herbicidal rating, ZEAMX", "setting": "ZEAMX (Corn, Field); rate 0.0320 kg/ha", "result": 5.8},
      {"measurement": "Postemergence herbicidal rating, ZEAMX", "setting": "ZEAMX (Corn, Field); rate 0.0620 kg/ha", "result": 6.3},
      {"measurement": "Postemergence herbicidal rating, AMBEL", "setting": "[15]; rate 0.0320 kg/ha", "result": 9.0},
      {"measurement": "Postemergence herbicidal rating, AMBEL", "setting": "[15]; rate 0.0620 kg/ha", "result": 9.0},
      {"measurement": "Postemergence herbicidal rating, CASOB", "setting": "[16]; rate 0.0320 kg/ha", "result": 8.0},
      {"measurement": "Postemergence herbicidal rating, CASOB", "setting": "[16]; rate 0.0620 kg/ha", "result": 9.0},
      {"measurement": "Postemergence herbicidal rating, CHEAL", "setting": "[17]; rate 0.0320 kg/ha", "result": 9.0},
      {"measurement": "Postemergence herbicidal rating, CHEAL", "setting": "[17]; rate 0.0620 kg/ha", "result": 9.0},
      {"measurement": "ABUTH preemergence herbicidal rating", "setting": "[18]; Rate 0.0620 kg/ha", "result": 9.0},
      {"measurement": "ABUTH preemergence herbicidal rating", "setting": "[18]; Rate 0.1250 kg/ha", "result": 9.0},
      {"measurement": "ABUTH preemergence herbicidal rating", "setting": "[18]; Rate 0.2500 kg/ha", "result": 9.0},
      {"measurement": "IPOHE preemergence herbicidal rating", "setting": "[19]; Rate 0.0620 kg/ha", "result": 9.0},
      {"measurement": "IPOHE preemergence herbicidal rating", "setting": "[19]; Rate 0.1250 kg/ha", "result": 9.0},
      {"measurement": "IPOHE preemergence herbicidal rating", "setting": "[19]; Rate 0.2500 kg/ha", "result": 9.0}
    ]}
  ]
}
